Values joined by “and” are separate entries in the source; they are usually repeats but may differ in a detail not shown here. Equal values may be shown once. Read-outs that look alike come from different tables or passages of the source.
Key:
[1] = Stability of lutein dry cake in essential oils; type: physicochemical; conditions: 20 weeks; for trans lutein dropped: accelerated conditions (40° C.); for lutein lost: ambient (25° C.)
Protocol: Stability experiments were performed with the best group of essential oils and lutein dry cake. Fresh samples were made, placed in amber vials, blanked with argon and placed onto stability at 25° C. and 40° C. after taking initial % carotenoids and % lutein. Bay, cornmint, peppermint, spearmint, tea tree, pure thyme, red thyme, and white thyme oils were all tested up to 20 weeks. FIGS. 1 and 2 show total carotenoids at ambient and FIGS. 3 and 4 show all trans lutein at ambient conditions. Tea tree oil and bay oil had the best stability of total carotenoids and all trans lutein at ambient conditions. Tea tree lost 32% lutein and pure thyme lost 22% lutein after 20 weeks. It should be noted that the oils were not tested at maximum lutein solubility conditions for stability testing.
FIGS. 5 and 6 show the same set of experiments for total carotenoids at accelerated conditions. FIGS. 7 and 8 show all trans lutein at accelerated conditions. Under accelerated conditions, bay oil, red thyme and pure thyme fared the best for total carotenoids and lutein. Bay oil trans lutein dropped 54% and pure/red thyme oil trans lutein dropped approximately 47% at 20 weeks. It seems the biggest drop occurs during the first 2-week time point then it levels off. All other oils did much worse.

[2] = consumption of lutein and zeaxanthin; Seddon et al., 1994; cited from earlier work
[3] = cited from earlier work
[4] = Lutein solubility in essential oils; type: physicochemical
Protocol: Lutein dry cake was dissolved in each oil until visibly saturated. The sample was then blanketed with argon and sonicated for ten minutes. If the all the lutein appeared to go into solution, more was added and the process repeated. After the sample was completely saturated, the sample was transferred to a microcentrifuge tube and centrifuged at 14,000 rpm for 10 minutes. If the lutein was not pelleted by centrifugation, the sample was passed through a 0.22 μm filter unit to remove any suspended lutein. The clarified oil was then analyzed for lutein content using UV-VIS and HPLC.
Lutein content was measured by using an analytical method as follows. Using an analytical balance, 10-20 mg of the sample is weighed into a 100 ml volumetric flask. The sample is diluted to the mark with HEAT (10:6:7:7 v:v:v:v hexane:ethanol:acetone:toluene), and the mixture is agitated or stirred until the sample is dissolved. One ml of this solution is transferred by pipette into a 100 ml amber volumetric flask and diluted to the mark with ethanol. The absorbance of the ethanol solution is measured at 446 nm on a UV/Vis spectrophotometer that has previously been zeroed against ethanol. For analysis by HPLC, 1 ml of the ethanol solution is transferred to an HPLC sample vial and dried using a nitrogen or argon gas stream. The dried sample is dissolved in 1 ml of HPLC mobile phase; sonication may be necessary to complete the solution. The HPLC instrument is set with the following parameters: the column is a 25 cm×4.6 mm nitrile bonded Spherisorb with 5 μm particles; 69 minute run time; flow rate of 1.00 ml/min; back pressure of 64 bar; injection volume of 50 μl; solvent of 75:25:0.35:0.1 (v:v:v:v) hexane/methylene chloride/methanol/diisopropylethylamine (all solvents are HPLC grade); detector is a visible lamp set to 446 nm; and temperature is 22° C. Fifty μl of the ethanol solution is injected into the HPLC column. The peaks at approximately 24, 26, 28.5, 32, 34, 40 and 42 minutes (corresponding to 13, 13′-di-cis-lutein, all-trans-lutein, all-trans-zeaxanthin, 9-cis-lutein, 9′-cis-lutein, 13 and 13′-cis -lutein and 9-cis-zeaxanthin) are integrated and used to determine the HPLC percent area for the lutein peak. The following equations were used for the essential oils: [formula] [formula] [formula]
% Lutein=% Carotenoids*(% Total HPLC area of lutein/100)

trans lutein dropped ([1]; in bay oil): 54%
lutein lost ([1]; in pure thyme oil): 22%
trans lutein dropped ([1]; in pure/red thyme oil): approximately 47%
lutein lost ([1]; in tea tree oil): 32%
% Lutein ([4]; in Almond oil, NOW Foods 7660): 0.030%
% Lutein ([4]; in Aloe Vera LQX oil, Lebermuth 50-6010-11, lot Sample): 0.028%
% Lutein ([4]; in Anise, Spanish oil, Lebermuth 50-6015-11, lot Sample): 0.223%
% Lutein ([4]; in Apricot Kernel oil, NOW Foods 7665): 0.035%
% Lutein ([4]; in Bay oil, Lebermuth 50-6025-01, lot BA41-0484): 1% and 1.001%
% Lutein ([4]; in Bay oil, Lebermuth 50-6025-01, lot Sample): 1.152%
% Lutein ([4]; in Bay oil, Spectrum Botanical EO6): 1.327%
% Lutein ([4]; in Bergamot Mint oil, Lebermuth 50-6177-01, lot Sample): 0.325%
% Lutein ([4]; in Birch, Sweet Southern oil, Lebermuth 50-6035-02, lot Sample): 0.236%
% Lutein ([4]; in Cassia, redistilled oil, Lebermuth 50-6060-01, lot Sample): 0.639%
% Lutein ([4]; in Castor oil, NOW Foods 7675): 0.171%
% Lutein ([4]; in Cedarwood, Texas White oil, Lebermuth 50-6075-01, lot Sample): 0.172%
% Lutein ([4]; in Cornmint, Redistilled oil, Lebermuth 50-6100-01, lot CR43-0155): 0.951%
% Lutein ([4]; in Cornmint, Redistilled oil, Lebermuth 50-6100-01, lot Sample): 1.163%
% Lutein ([4]; in Eucalyptus, 80/85 oil, Lebermuth 50-6105-02, lot Sample): 0.672%
% Lutein ([4]; in Eugenol, Lebermuth 50-6110-01, lot Sample): 0.517%
% Lutein ([4]; in Frankincense, Olibanum oil, Lebermuth 50-5100-01, lot Sample): 0.243%
% Lutein ([4]; in Geranium (Rose), Egyptian oil, Lebermuth 50-6130-11, lot Sample): 0.600%
% Lutein ([4]; in Grapefruit, White oil, Lebermuth 50-6140-01, lot Sample): 0.071%
% Lutein ([4]; in Grapeseed oil, NOW Foods 7705): 0.027%
% Lutein ([4]; in Juniperberry oil, Lebermuth 50-6150-02, lot Sample): 0.140%
% Lutein ([4]; in Lemon, California oil, Lebermuth 50-6160-01, lot Sample): 0.071%
% Lutein ([4]; in Lime, distilled oil, Lebermuth 50-6170-01, lot Sample): 0.213%
% Lutein ([4]; in Nutmeg oil, Lebermuth 50-6190-01, lot Sample): 0.122%
% Lutein ([4]; in Peppermint oil, Spectrum Botanical EO64): 1.358%
% Lutein ([4]; in Peppermint, Yakima redistilled oil, Lebermuth 50-6225-21, lot PY43-0157): 0.945%
% Lutein ([4]; in Peppermint, Yakima redistilled oil, Lebermuth 50-6225-21, lot Sample): 1.010%
% Lutein ([4]; in Red Thyme Thymus satureioides oil, Spectrum Botanical, item unspecified): 1.0% and 1.084%
% Lutein ([4]; in Red Thyme Thymus vulgaris oil, Spectrum Botanical EO151): 4.4% and 4.481%
% Lutein ([4]; in Rosemary, Morrocan oil, Lebermuth 50-6230-03, lot Sample): 0.637%
% Lutein ([4]; in Sage, Clary oil, Lebermuth 50-6235-03, lot Sample): 0.294%
% Lutein ([4]; in Spearmint oil, Spectrum Botanical EO76): 1.325%
% Lutein ([4]; in Spearmint, redistilled oil, Lebermuth 50-6250-11, lot 39SR-0163): 1.124%
% Lutein ([4]; in Spearmint, redistilled oil, Lebermuth 50-6250-11, lot Sample): 1.001%
% Lutein ([4]; in Tagetes oil, Lebermuth 50-6261-01, lot Sample): 0.268%
% Lutein ([4]; in Tea Tree oil, Lebermuth 50-6270-01, lot TX43-0146): 0.877%
% Lutein ([4]; in Tea Tree oil, NOW Foods 7625): 1.084%
% Lutein ([4]; in Tea Tree oil, NOW Foods 7625, listed as lutein): about 1%
% Lutein ([4]; in Tea Tree oil, Spectrum Botanical EO80): 0.942%
% Lutein ([4]; in Thyme oil, NOW Foods 7635): 3.582%
% Lutein ([4]; in Thyme oil, NOW Foods 7635, listed as lutein): 2.5%
% Lutein ([4]; in Thyme, Pure oil, Lebermuth 50-6275-04, lot TP41-0053): 3.453%
% Lutein ([4]; in Thyme, Red oil, Lebermuth 50-6275-02, lot TR43-0158): 4.753%
% Lutein ([4]; in Thyme, White oil, Lebermuth 50-6275-01, lot TLC11-T477): 3.0% and 3.095%
% Lutein ([4]; in White Thyme oil (from private source), item unspecified): 5.068%
% Lutein ([4]; in White Thyme oil, Spectrum Botanical EO82): 4.9% and 4.903%
% Lutein ([4]; in Wintergreen, Natural oil, Lebermuth 50-6285-11, lot Sample): 0.226%
% Lutein ([4]; in Wormwood, Natural oil, Lebermuth 50-6290-01, lot Sample): 0.682%
lutein solubility ([4]; in citrus oils (white grapefruit, lemon, lime)): 0.071-0.21%
lutein solubility ([4]; in grapeseed, almond and apricot kernel oils, NOW Foods): 0.02-0.03%
lutein solubility ([4]; in spearmint oil (text comparison with beta-carotene)): ~1.0%
lutein solubility ([4]; in thyme oils (red, white, pure)): 3.0-4.7% and 3.5-5% and 3-5%
Compound: CC1=C[C@H](O)CC(C)(C)[C@H]1/C=C/C(C)=C/C=C/C(C)=C/C=C/C=C(C)/C=C/C=C(C)/C=C/C1=C(C)C[C@@H](O)CC1(C)C [Lutein, lutein]
reduction in age-related macular degeneration [2]: 57%
reported solubility ([3]; in canola oil): 0.029%
reported solubility ([3]; in corn oil): 0.042%
reported solubility ([3]; in safflower oil): 0.033%
reported solubility ([3]; in soybean oil): 0.032%
